Source: article PMC5218480 (PLoS ONE, 2017)

System: MV-4-11 cells
Test: Gene expression microarray analysis (Affymetrix PrimeView) and GSEA
Format: cell-based, human
Design: RFU PODN (11730768_x_at) / Fold change /veh PODN (11730768_x_at) / RFU LINC00158 (11744669_a_at) / Fold change /veh LINC00158 (11744669_a_at) / RFU DUSP10 (11751237_a_at) / Fold change /veh DUSP10 (11751237_a_at) / RFU ID3 (11757404_x_at) / Fold change /veh ID3 (11757404_x_at) / RFU PLEKHG5 (11737974_s_at) / Fold change /veh PLEKHG5 (11737974_s_at) / RFU LRRC4B (11730491_at) / Fold change /veh LRRC4B (11730491_at) / RFU GIMAP4 (11747438_a_at) / Fold change /veh GIMAP4 (11747438_a_at) / RFU KRT8 (11758183_x_at) / Fold change /veh KRT8 (11758183_x_at) / RFU CNN1 (11734310_a_at) / Fold change /veh CNN1 (11734310_a_at) / RFU VPS37D (11726825_at) / Fold change /veh VPS37D (11726825_at) / RFU C10orf10 (11716522_x_at) / Fold change /veh C10orf10 (11716522_x_at) / RFU KIR2DL2 /// KIR2DL4 /// KIR2DL5A /// KIR2DL5B /// KIR2DS1 /// KIR2DS2 /// KIR2DS3 /// KIR2DS4 /// KIR3DL3 /// KIR3DL3 /// KIR3DS1 (11738374_at) / Fold change /veh KIR2DL2 /// KIR2DL4 /// KIR2DL5A /// KIR2DL5B /// KIR2DS1 /// KIR2DS2 /// KIR2DS3 /// KIR2DS4 /// KIR3DL3 /// KIR3DL3 /// KIR3DS1 (11738374_at) / RFU C1QL1 (11718748_at) / Fold change /veh C1QL1 (11718748_at) / RFU TMPRSS4 (11747572_a_at) / Fold change /veh TMPRSS4 (11747572_a_at) / RFU HAMP (11756126_x_at) / Fold change /veh HAMP (11756126_x_at) / RFU RNFT2 (11725882_a_at) / Fold change /veh RNFT2 (11725882_a_at) / RFU NR4A2 (11747474_a_at) / Fold change /veh NR4A2 (11747474_a_at) / RFU ABCC12 (11746883_a_at) / Fold change /veh ABCC12 (11746883_a_at) / RFU TMEM136 (11760407_x_at) / Fold change /veh TMEM136 (11760407_x_at) / RFU CLDN22 /// WWC2 (11732394_at) / Fold change /veh CLDN22 /// WWC2 (11732394_at) / RFU HLA-DPB1 (11760878_x_at) / Fold change /veh HLA-DPB1 (11760878_x_at) / RFU SPINT1 (11716480_a_at) / Fold change /veh SPINT1 (11716480_a_at) / RFU GAP43 (11754022_s_at) / Fold change /veh GAP43 (11754022_s_at) / RFU A4GNT (11735810_at) / Fold change /veh A4GNT (11735810_at) / RFU PRB3 (11715151_x_at) / Fold change /veh PRB3 (11715151_x_at) / RFU TUBB4B (11761932_at) / Fold change /veh TUBB4B (11761932_at) / RFU CAPN14 (11732068_a_at) / Fold change /veh CAPN14 (11732068_a_at) / RFU TMCC2 (11721928_a_at) / Fold change /veh TMCC2 (11721928_a_at) / RFU IRGQ (11745062_a_at) / Fold change /veh IRGQ (11745062_a_at) / RFU FAM174B (11720279_a_at) / Fold change /veh FAM174B (11720279_a_at) / RFU TMPRSS4 (11748680_a_at) / Fold change /veh TMPRSS4 (11748680_a_at) / RFU FAM212B (11763350_a_at) / Fold change /veh FAM212B (11763350_a_at) / RFU PLEKHG5 (11743358_a_at) / Fold change /veh PLEKHG5 (11743358_a_at) / RFU ZSCAN30 (11745921_a_at) / Fold change /veh ZSCAN30 (11745921_a_at) / RFU CMKLR1 (11741424_a_at) / Fold change /veh CMKLR1 (11741424_a_at) / RFU LOC101060620 /// MAPK8IP1 (11723275_at) / Fold change /veh LOC101060620 /// MAPK8IP1 (11723275_at) / RFU SPTSSB (11747773_x_at) / Fold change /veh SPTSSB (11747773_x_at) / RFU PRSS12 (11739890_at) / Fold change /veh PRSS12 (11739890_at) / RFU BIN1 (11741810_x_at) / Fold change /veh BIN1 (11741810_x_at) / RFU WNT11 (11732464_a_at) / Fold change /veh WNT11 (11732464_a_at) / RFU C10orf10 (11716521_a_at) / Fold change /veh C10orf10 (11716521_a_at) / RFU C5orf56 (11738089_at) / Fold change /veh C5orf56 (11738089_at) / RFU CYB561 (11721691_x_at) / Fold change /veh CYB561 (11721691_x_at) / RFU ANKRD19P (11752326_a_at) / Fold change /veh ANKRD19P (11752326_a_at) / RFU OR2T12 /// OR2T33 /// OR2T8 (11738714_s_at) / Fold change /veh OR2T12 /// OR2T33 /// OR2T8 (11738714_s_at) / RFU VCAN (11748164_a_at) / Fold change /veh VCAN (11748164_a_at) / RFU JSRP1 (11732532_at) / Fold change /veh JSRP1 (11732532_at) / RFU KRTAP10-11 (11738290_x_at) / Fold change /veh KRTAP10-11 (11738290_x_at) / RFU MYO3A (11730013_a_at) / Fold change /veh MYO3A (11730013_a_at) / RFU EBF3 (11725865_a_at) / Fold change /veh EBF3 (11725865_a_at) / RFU CAMK2N1 (11719241_x_at) / Fold change /veh CAMK2N1 (11719241_x_at) / RFU C5orf56 (11738088_a_at) / Fold change /veh C5orf56 (11738088_a_at) / RFU OLFML3 (11715873_a_at) / Fold change /veh OLFML3 (11715873_a_at) / RFU LOC100653217 /// NTM (11731650_a_at) / Fold change /veh LOC100653217 /// NTM (11731650_a_at) / RFU MAPK11 (11762145_a_at) / Fold change /veh MAPK11 (11762145_a_at) / RFU FIZ1 (11724087_x_at) / Fold change /veh FIZ1 (11724087_x_at) / RFU OASL (11726364_x_at) / Fold change /veh OASL (11726364_x_at) / RFU SOX15 (11748057_x_at) / Fold change /veh SOX15 (11748057_x_at) / RFU CD79A (11719716_a_at) / Fold change /veh CD79A (11719716_a_at) / RFU HIST1H1D (11736915_at) / Fold change /veh HIST1H1D (11736915_at) / RFU CASKIN2 (11723855_a_at) / Fold change /veh CASKIN2 (11723855_a_at) / RFU LOC730098 (11760151_x_at) / Fold change /veh LOC730098 (11760151_x_at) / RFU OR4N2 (11742367_at) / Fold change /veh OR4N2 (11742367_at) / RFU PRRT2 (11749266_a_at) / Fold change /veh PRRT2 (11749266_a_at) / RFU SNX32 (11753110_a_at) / Fold change /veh SNX32 (11753110_a_at) / RFU CDHR5 (11726645_a_at) / Fold change /veh CDHR5 (11726645_a_at) / RFU RCAN1 (11760418_a_at) / Fold change /veh RCAN1 (11760418_a_at) / RFU FAM167A (11723789_a_at) / Fold change /veh FAM167A (11723789_a_at) / RFU FAM26E (11764081_at) / Fold change /veh FAM26E (11764081_at) / RFU ISYNA1 (11749810_s_at) / Fold change /veh ISYNA1 (11749810_s_at) / RFU ACY1 (11761880_at) / Fold change /veh ACY1 (11761880_at) / RFU 11764098_at / Fold change /veh 11764098_at / RFU SAMD14 (11745864_x_at) / Fold change /veh SAMD14 (11745864_x_at) / RFU NPB (11741838_a_at) / Fold change /veh NPB (11741838_a_at) / RFU TMPRSS6 (11731388_a_at) / Fold change /veh TMPRSS6 (11731388_a_at) / RFU KRTAP10-2 (11738614_at) / Fold change /veh KRTAP10-2 (11738614_at) / RFU ARHGAP8 /// PRR5-ARHGAP8 (11727945_x_at) / Fold change /veh ARHGAP8 /// PRR5-ARHGAP8 (11727945_x_at) / RFU KRTAP5-7 /// NADSYN1 (11734609_at) / Fold change /veh KRTAP5-7 /// NADSYN1 (11734609_at) / RFU RASL12 (11751679_a_at) / Fold change /veh RASL12 (11751679_a_at) / RFU CDKN2B (11736163_a_at) / Fold change /veh CDKN2B (11736163_a_at) / RFU PRF1 (11729649_at) / Fold change /veh PRF1 (11729649_at) / RFU, ZNF638 /// ZNF638-IT1 / Fold change vs veh, ZNF638 /// ZNF638-IT1 / RFU, PANK3 / Fold change vs veh, PANK3 / RFU, SH3YL1 / Fold change vs veh, SH3YL1 / RFU, ZEB2 / Fold change vs veh, ZEB2 / RFU, NRIP1 / Fold change vs veh, NRIP1 / RFU, PTTG1IP / Fold change vs veh, PTTG1IP / RFU, CAPN2 / Fold change vs veh, CAPN2 / RFU, MED14 / Fold change vs veh, MED14 / RFU, SNORA58 / Fold change vs veh, SNORA58 / RFU, C1orf63 / Fold change vs veh, C1orf63 / RFU, LRRFIP1 / Fold change vs veh, LRRFIP1 / RFU, NDUFAF7 / Fold change vs veh, NDUFAF7 / RFU, SLC12A2 / Fold change vs veh, SLC12A2 / RFU, IBTK / Fold change vs veh, IBTK / RFU, ESF1 / Fold change vs veh, ESF1 / Fold change vs veh, TMEM50B / RFU, TAOK1 / Fold change vs veh, TAOK1 / RFU, ACBD3 / Fold change vs veh, ACBD3 / RFU, TMA16 / Fold change vs veh, TMA16 / RFU, RWDD3 / Fold change vs veh, RWDD3 / RFU, BCAT1 / Fold change vs veh, BCAT1 / RFU, EDEM3 / Fold change vs veh, EDEM3 / RFU, TMEM33 / Fold change vs veh, TMEM33 / RFU, WDR75 / Fold change vs veh, WDR75 / RFU, AHCTF1 / Fold change vs veh, AHCTF1 / RFU, TFRC / Fold change vs veh, TFRC / RFU, ZDHHC17 / Fold change vs veh, ZDHHC17 / RFU, NOM1 / Fold change vs veh, NOM1 / RFU, ARL8B / Fold change vs veh, ARL8B / RFU, ZBTB11 / Fold change vs veh, ZBTB11 / RFU, TAMM41 / Fold change vs veh, TAMM41 / RFU, KIAA1704 /// LOC100996395 / Fold change vs veh, KIAA1704 /// LOC100996395 / RFU, ING1 / Fold change vs veh, ING1 / RFU, TRMT61B / Fold change vs veh, TRMT61B / RFU, FUBP3 / Fold change vs veh, FUBP3 / RFU, TP53 / Fold change vs veh, TP53 / RFU, TNKS2 / Fold change vs veh, TNKS2 / RFU, ZFP14 / Fold change vs veh, ZFP14 / RFU, ACTR2 / Fold change vs veh, ACTR2 / RFU, PPP3R1 / Fold change vs veh, PPP3R1 / RFU, PIK3R1 / Fold change vs veh, PIK3R1 / RFU, HNRNPA1 / Fold change vs veh, HNRNPA1 / RFU, RNF170 / Fold change vs veh, RNF170 / RFU, ZNF28 / Fold change vs veh, ZNF28 / RFU, RNGTT / Fold change vs veh, RNGTT / RFU, OGT / Fold change vs veh, OGT / RFU, BRD1 / Fold change vs veh, BRD1 / RFU, MARS / Fold change vs veh, MARS / RFU, ZNF655 / Fold change vs veh, ZNF655 / RFU, FAHD1 / Fold change vs veh, FAHD1 / RFU, BDP1 / Fold change vs veh, BDP1 / RFU, LRRCC1 / Fold change vs veh, LRRCC1 / RFU, ARID1A / Fold change vs veh, ARID1A / RFU, ZNF146 / Fold change vs veh, ZNF146 / RFU, ZNF330 / Fold change vs veh, ZNF330 / RFU, GPN3 / Fold change vs veh, GPN3 / RFU, C9orf123 / Fold change vs veh, C9orf123 / RFU, N4BP2L2 / Fold change vs veh, N4BP2L2 / RFU, ARFIP1 / Fold change vs veh, ARFIP1 / RFU, FAM179B / Fold change vs veh, FAM179B / RFU, BCL10 / Fold change vs veh, BCL10 / RFU, UHRF1BP1L / Fold change vs veh, UHRF1BP1L / RFU, BET1 / Fold change vs veh, BET1 / RFU, CNOT2 / Fold change vs veh, CNOT2 / RFU, ZNF268 / Fold change vs veh, ZNF268 / Fold change vs veh, ZNF507 / RFU, DGCR2 / Fold change vs veh, DGCR2 / RFU, WDSUB1 / Fold change vs veh, WDSUB1 / Fold change vs veh, HSP90B1 /// MIR3652 / RFU, ADSS / Fold change vs veh, ADSS / RFU, GK / Fold change vs veh, GK / RFU, ZNF148 / Fold change vs veh, ZNF148 / RFU, TAF9 / Fold change vs veh, TAF9 / RFU, SLC1A5 / Fold change vs veh, SLC1A5 / RFU, SLMO2 / Fold change vs veh, SLMO2 / RFU, ABCC4 / Fold change vs veh, ABCC4 / RFU, LOC101060439 /// RAP1B / Fold change vs veh, LOC101060439 /// RAP1B / RFU, RFX7 / Fold change vs veh, RFX7 / RFU, GTPBP10 / Fold change vs veh, GTPBP10 / RFU, CNEP1R1 / Fold change vs veh, CNEP1R1 / RFU, BIVM-ERCC5 /// ERCC5 / Fold change vs veh, BIVM-ERCC5 /// ERCC5 / RFU, ILF3 / Fold change vs veh, ILF3 / RFU 11762660_at / Fold change /veh 11762660_at / RFU VCAN (11757783_s_at) / Fold change /veh VCAN (11757783_s_at) / RFU DDX43 (11728927_at) / Fold change /veh DDX43 (11728927_at) / RFU KRT8 (11758188_x_at) / Fold change /veh KRT8 (11758188_x_at) / RFU NKD1 (11759106_at) / Fold change /veh NKD1 (11759106_at) / RFU SRD5A1 (11742802_a_at) / Fold change /veh SRD5A1 (11742802_a_at) / RFU TPSAB1 /// TPSB2 (11721975_s_at) / Fold change /veh TPSAB1 /// TPSB2 (11721975_s_at) / RFU GSTM3 (11746129_a_at) / Fold change /veh GSTM3 (11746129_a_at) / RFU IL23R (11737362_x_at) / Fold change /veh IL23R (11737362_x_at) / RFU TMEM51 (11727254_a_at) / Fold change /veh TMEM51 (11727254_a_at) / RFU PIWIL2 (11732686_x_at) / Fold change /veh PIWIL2 (11732686_x_at) / RFU ORM1 (11744905_x_at) / Fold change /veh ORM1 (11744905_x_at) / RFU CCDC152 (11743942_at) / Fold change /veh CCDC152 (11743942_at) / RFU ECM1 (11717891_a_at) / Fold change /veh ECM1 (11717891_a_at) / RFU IL23R (11748794_a_at) / Fold change /veh IL23R (11748794_a_at) / RFU TNFAIP8L3 (11732012_x_at) / Fold change /veh TNFAIP8L3 (11732012_x_at) / RFU MBOAT4 (11741988_at) / Fold change /veh MBOAT4 (11741988_at) / RFU 11764193_at / Fold change /veh 11764193_at / RFU TMEM53 (11763286_at) / Fold change /veh TMEM53 (11763286_at) / RFU MAGEB2 (11727129_at) / Fold change /veh MAGEB2 (11727129_at) / RFU TMEM200A (11744735_a_at) / Fold change /veh TMEM200A (11744735_a_at) / RFU CCDC152 (11751479_a_at) / Fold change /veh CCDC152 (11751479_a_at) / RFU FAM211A (11726209_a_at) / Fold change /veh FAM211A (11726209_a_at) / RFU RGS16 (11746705_a_at) / Fold change /veh RGS16 (11746705_a_at) / RFU VCAN (11755009_s_at) / Fold change /veh VCAN (11755009_s_at) / RFU RHOB (11743442_s_at) / Fold change /veh RHOB (11743442_s_at) / RFU RGS16 (11720943_a_at) / Fold change /veh RGS16 (11720943_a_at) / RFU RGS16 (11720944_at) / Fold change /veh RGS16 (11720944_at) / RFU, VPS4B / Fold change vs veh, VPS4B / RFU, CREB1 / Fold change vs veh, CREB1 / RFU, DNAJC13 / Fold change vs veh, DNAJC13 / RFU, GNAQ / Fold change vs veh, GNAQ / RFU, CDK5R1 / Fold change vs veh, CDK5R1 / RFU, ZRANB3 / Fold change vs veh, ZRANB3 / RFU, CUL4A / Fold change vs veh, CUL4A / RFU, CCNY / Fold change vs veh, CCNY / RFU, UFL1 / Fold change vs veh, UFL1 / RFU, COG3 / Fold change vs veh, COG3 / RFU, DIAPH2 / Fold change vs veh, DIAPH2 / RFU, SKA2 / Fold change vs veh, SKA2 / RFU, AFF3 / Fold change vs veh, AFF3 / RFU, LMF1 / Fold change vs veh, LMF1 / RFU, IPO11 / Fold change vs veh, IPO11 / RFU, DFFB / Fold change vs veh, DFFB / RFU, FOXP1 / Fold change vs veh, FOXP1 / RFU, CARD8 / Fold change vs veh, CARD8 / RFU, STRN3 / Fold change vs veh, STRN3 / RFU, ADK / Fold change vs veh, ADK / RFU, RASSF2 / Fold change vs veh, RASSF2 / RFU, WIPF1 / Fold change vs veh, WIPF1 / RFU, LARP1B / Fold change vs veh, LARP1B / RFU, RASA1 / Fold change vs veh, RASA1 / RFU, RB1 / Fold change vs veh, RB1 / RFU, PPFIA1 / Fold change vs veh, PPFIA1 / RFU, MAT2A / Fold change vs veh, MAT2A / RFU, CCT5 / Fold change vs veh, CCT5 / RFU, WDR92 / Fold change vs veh, WDR92 / RFU, CUX1 / Fold change vs veh, CUX1 / RFU, TTC7A / Fold change vs veh, TTC7A / RFU, TMEM135 / Fold change vs veh, TMEM135 / RFU, DEPTOR / Fold change vs veh, DEPTOR / RFU, CPM / Fold change vs veh, CPM / RFU, DNAJB6 / Fold change vs veh, DNAJB6 / RFU, CACNA2D3 / Fold change vs veh, CACNA2D3 / RFU, DTX4 / Fold change vs veh, DTX4 / RFU, TFCP2 / Fold change vs veh, TFCP2 / RFU, GMCL1 /// GMCL1P1 / Fold change vs veh, GMCL1 /// GMCL1P1 / RFU, AEBP2 / Fold change vs veh, AEBP2 / RFU, SNHG1 /// SNORD22 /// SNORD25 /// SNORD26 /// SNORD27 /// SNORD28 /// SNORD29 /// SNORD31 / Fold change vs veh, SNHG1 /// SNORD22 /// SNORD25 /// SNORD26 /// SNORD27 /// SNORD28 /// SNORD29 /// SNORD31 / Fold change (Aza/veh), C12orf56 (ProbeSet 11735607_a_at) / Fold change (ACY-1035/veh), C12orf56 (ProbeSet 11735607_a_at) / Fold change (Aza/veh), FGFR1OP (ProbeSet 11751329_s_at) / Fold change (ACY-1035/veh), FGFR1OP (ProbeSet 11751329_s_at) / Fold change (Aza/veh), VPS36 (ProbeSet 11739960_a_at) / Fold change (ACY-1035/veh), VPS36 (ProbeSet 11739960_a_at) / RFU SYPL1 (11715823_x_at) / Fold change /veh SYPL1 (11715823_x_at) / RFU IGFBP7 (11715501_s_at) / Fold change /veh IGFBP7 (11715501_s_at) / RFU REEP3 (11722064_at) / Fold change /veh REEP3 (11722064_at) / RFU IGLL1 (11728026_x_at) / Fold change /veh IGLL1 (11728026_x_at): dose or concentration left out as unconfirmed
Conditions: MV-4-11 cells, 48 hours

Nc1ccc(-c2cccs2)cc1NC(=O)c1ccc2c(c1)cc(C1CC1)n2CCN1CCOCC1 [ACY-1035]
RFU A4GNT (11735810_at): 16.59 RFU
